Laboratory results as given in ChEMBL document CHEMBL1158820, “Avrainvilloside, a 6-deoxy-6-aminoglucoglycerolipid from the green alga Avrainvillea nigricans” (J Nat Prod, 2005).

Test system: WEHI-164
Assay: Cytotoxicity against mouse WEHI164 cells
Type: functional, cell-based

In the case of `CCCCCCCCCCCCCCCCCC(=O)OC[C@H](CO[C@H]1O[C@H](CN)[C@@H](O)[C@H](O)[C@H]1O)OC(=O)CCCCCCCCCCCCCCCCC` [AVRAINVILLOSIDE], the IC50 is reported as greater than 10 µg/mL.
